Values of other authors in PMC9099121, “Population pharmacokinetic and exposure‐response analyses from ALTA‐1L: Model‐based analyses supporting the brigatinib dose in ALK‐positive NSCLC” (Clinical and Translational Science, 2022).

Tested on: ALK-rearranged advanced NSCLC
Set-up: method as in PMID 31020351
Settings: time-dependent exposure metric; 95% CI: 0.92–1.17; nonsignificant; cited from earlier work

For `Cc1cc(Nc2ncc(Cl)c(Nc3ccccc3S(=O)(=O)C(C)C)n2)c(OC(C)C)cc1C1CCNCC1` [ceritinib], the “HR, exposure versus risk of disease progression” value is given as 1.04.
